These results are taken from PubChem BioAssay (NCI).

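These data come from cells grown in 96-well plates and exposed to compound for 48 hours at five concentrations. TGI marks complete inhibition of growth.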

What all share (experiment): NCI tumour cell line growth inhibition, 48 h
Test [1] relates to LOX IMVI melanoma.
The subject of test [2] is SNB-19 CNS.
Test [3] relates to MOLT-4 leukemia.
In test [4] the test system is ACHN renal.
Test [5] has as its system HCT-15 colon.
Test [6] deals with NCI-H23 lung.
Test [7] has as its system SF-295 CNS.
The subject of test [8] is M14 melanoma.
In test [9] the test system is DU-145 prostate.
Test [10] deals with UACC-257 melanoma.

`CN1N=C(c2ccncc2)OC1c1ccccc1F` (stereo not drawn): the TGI in test [1], in [2], in test [3], in test [4], in test [5] and in test [6] was greater than 100 µM in each case. Also, the TGI in test [7], in test [8] and in test [9] was greater than 100 µM in each case.

Regarding `c1ccc2c(c1)CCCC/C2=N/OCC1CO1` (stereo not drawn), the TGI in [1], in [3], in test [4], in [5], in [6] and in test [7] was greater than 100 µM each time. Moreover, the TGI in test [10] is greater than 100 µM.

On to `O=C(O)/C=C\C(=O)Nc1ccc(S(=O)(=O)c2ccc(NC(=O)/C=C\C(=O)O)cc2)cc1`, for which the TGI in test [1], in test [2], in [3], in [4], in test [5] and in test [6] was greater than 100 µM throughout. Moreover, the TGI in test [7], in test [8] and in [10] was greater than 100 µM in each case.

As to `COc1cc([N+](=O)[O-])c(OC)c2c(Nc3ccc(S(=O)(=O)O)c4cc(S(=O)(=O)O)cc(S(=O)(=O)O)c34)cc(C)nc12`, the TGI in [1], in test [3], in test [6], in test [8], in test [10] and in test [9] was greater than 100 µM each time.

For `O=C1c2cccc(O)c2C(=O)c2c(O)cc(CO)cc21`, the TGI in [1], in [2], in test [3], in test [4], in test [5] and in [6] was greater than 100 µM each time. In addition, the TGI in [7], in test [8] and in [10] was greater than 100 µM each time.

Consider `O=C1C2=Nc3ccccc3C(O)(C(=O)O)N2c2ccccc21` (stereo not drawn), for which the TGI in [1] was 59.2 µM; in test [3], greater than 100 µM; in test [4] it was greater than 100 µM; in [5], greater than 100 µM; in test [6] it was 54.3 µM; in test [7], 39.9 µM. Besides, the TGI came to 24.2 µM in test [10] and 29.8 µM in test [9].

For the molecule `COC(=O)C1(O)C(c2ccccc2)=NC2(C)CCCC21` (stereo not drawn), the TGI in [1], in [2], in [3], in [5], in test [6] and in [7] was greater than 100 µM in each case. The TGI in test [8], in [10] and in [9] was greater than 100 µM each time.

As for `Cc1c(-c2ccccc2)[nH]n(C2=NCCN2)c1=O`, the TGI in [1], in test [2], in test [3], in test [4], in [5] and in test [6] was greater than 100 µM each time. For the same molecule, the TGI in test [7], in test [8] and in test [10] was greater than 100 µM in each case.

As for `COc1ccc(/C=N/n2c(C)nc3c(sc(=S)n3-c3ccccc3)c2=O)cc1`, the TGI in test [2], in test [3], in test [4], in [6], in test [7] and in test [10] was greater than 100 µM each time.

As for `C[C@H]1OC(=O)[C@@H]2N=NN(Cc3ccccc3)[C@H]12`, the TGI in test [2], in test [3], in test [4], in [5], in test [6] and in test [7] was greater than 100 µM in each case. Moreover, the TGI in test [8] and in [9] was greater than 100 µM in each case.

For `Cc1cccc(/C(Br)=C2/OC(=O)c3ccccc32)c1`, the TGI in test [3], in [4], in test [5], in test [6], in test [7] and in test [8] was greater than 100 µM throughout. For the same molecule, the TGI in test [10] and in test [9] was greater than 100 µM each time.

On to `CC(C)C(N)C(=O)NC(CCC(=O)NCCCCC(N)C(=O)NCCCNc1ccc([N+](=O)[O-])c2[nH]c3ccccc3c(=O)c12)C(N)=O` (stereo not drawn), for which the TGI was 80.2 µM in [1]; greater than 100 µM in [2]; greater than 100 µM in test [4]; greater than 100 µM in test [5]; greater than 100 µM in test [6]; greater than 100 µM in test [7]. Besides, the TGI in test [8], in [10] and in [9] was greater than 100 µM in each case.

Turning to `O=C1OC(c2ccccc2)N(C(=O)c2ccccc2)C1Cc1ccc(OCc2ccccc2)cc1` (stereo not drawn), the TGI in test [1], in [2], in test [4], in [5], in [6] and in test [8] was greater than 100 µM in each case. In test [9], this molecule yielded a TGI greater than 100 µM.

For the molecule `CC1(C)N=C2C(=O)c3c([nH]c4ccccc34)[C@]3(C)CCC1CC23` (stereo partly drawn), the TGI in test [1], in test [3], in test [4], in test [5], in [6] and in test [7] was greater than 6.25 µM each time. The TGI in test [10] and in [9] was greater than 6.25 µM each time.

For the molecule `CC1(C)OC2COC3([C@@H]4OC(C)(C)O[C@@H]4CO)OC(C)(C)OC3C2O1` (stereo partly drawn), the TGI in test [1], in [2], in test [4], in test [5], in test [6] and in test [7] was greater than 100 µM throughout. Further, the TGI in test [8], in test [10] and in test [9] was greater than 100 µM throughout.

As to `O=C(CC(C(=O)c1ccco1)c1ccco1)c1ccco1` (stereo not drawn), the TGI in [1], in [3], in [4], in [6], in test [7] and in test [8] was greater than 100 µM each time. Further, the TGI in [10] and in [9] was greater than 100 µM each time.

For the molecule `COC(=O)N1N=C(c2ccccc2)C1c1ccccc1` (stereo not drawn), the TGI is 82.8 µM in test [1]; greater than 100 µM in test [2]; greater than 100 µM in test [3]; greater than 100 µM in test [5]; 88 µM in test [6]; greater than 100 µM in [8]. In addition, the values for the TGI in [10] and in [9] were 77.4 µM and greater than 100 µM, respectively.

On to `COc1cccc2c1OCC1Cc3ccccc3OC21` (stereo not drawn), for which the TGI in [1] was 98.3 µM; in test [3], greater than 100 µM; in test [5], greater than 100 µM; in test [6], greater than 100 µM; in test [7], greater than 100 µM; in test [8] it was greater than 100 µM. The TGI is 65.3 µM in test [10] and greater than 100 µM in test [9].

In the case of `O=C(O)CCCCCCCCC(=O)O`, the TGI is greater than 500 µM in test [1]; greater than 79.3 µM in [2]; greater than 500 µM in [3]; greater than 500 µM in test [5]; greater than 500 µM in test [6]; greater than 500 µM in [7]. In addition, the TGI in test [10] was greater than 500 µM.

As for `O=C1c2cccc(O)c2C(=O)c2c(OC3OC(CO)C(O)C(O)C3O)cccc21` (stereo not drawn), the TGI is greater than 100 µM in [1]; greater than 100 µM in [2]; greater than 100 µM in [4]; 94.9 µM in [5]; 31.6 µM in test [6]; greater than 100 µM in test [7]. Besides, the results for the TGI in [8], in test [10] and in test [9] were 51.3 µM, 39.9 µM and greater than 100 µM, respectively.

On to `C=CC(=O)N1C/C(=C\c2ccc(Cl)cc2)C(=O)/C(=C/c2ccc(Cl)cc2)C1`, for which the TGI turned out to be 0.229 µM in test [1]; 2.67 µM in [2]; 1.02 µM in test [4]; 0.497 µM in [5]; 2.15 µM in test [6]; 0.917 µM in test [7]. Moreover, the values for the TGI in test [8], in test [10] and in test [9] were 0.735 µM, 3.65 µM and 3.66 µM, respectively.

Take `CSc1nc2c(ncn2C2OC(CO)C(O)C(O)C2O)c(=O)[nH]1` (stereo not drawn): the TGI in [1], in [2], in test [3], in test [5], in test [6] and in test [7] was greater than 100 µM throughout. Moreover, the TGI in test [10] was greater than 100 µM.

With `COc1cc(C2c3cc4c(cc3[C@@H](Nc3ccc5c(c3)OCO5)C3COC(=O)[C@H]23)OCO4)cc(OC)c1O` (stereo partly drawn), the TGI in test [1] is 3.4 µM; in [2], 30.1 µM; in test [3], 0.236 µM; in test [5], 2.15 µM; in test [6] it was 4.07 µM; in test [7] it was 5.3 µM. Further, in [10], the TGI was determined as 8.38 µM.

Take `O=C(NN1C(=O)CSC1c1cccc(F)c1)c1ccncc1` (stereo not drawn): the TGI in test [1], in test [2], in [3], in test [4], in [5] and in test [6] was greater than 100 µM throughout. The TGI in test [7], in [8] and in test [10] was greater than 100 µM throughout.
